pIC50: −log10 of the molar value.

The results in this text go back to patent US11897898B2, “Pyridine macrocycle compounds as ASK1 inhibiting agents” (BIOGEN MA INC., priority 2018, dated 2024).

In this assay the target is T1, ASK1 T838 auto phosphorylation (Homo sapiens, UniProt Q99683).
T1 construct: ASK1-V5 tagged full length plasmid; expressed in transfected cells; host or cells: HEK-293T
T1 sequence (Q99683 1-1374): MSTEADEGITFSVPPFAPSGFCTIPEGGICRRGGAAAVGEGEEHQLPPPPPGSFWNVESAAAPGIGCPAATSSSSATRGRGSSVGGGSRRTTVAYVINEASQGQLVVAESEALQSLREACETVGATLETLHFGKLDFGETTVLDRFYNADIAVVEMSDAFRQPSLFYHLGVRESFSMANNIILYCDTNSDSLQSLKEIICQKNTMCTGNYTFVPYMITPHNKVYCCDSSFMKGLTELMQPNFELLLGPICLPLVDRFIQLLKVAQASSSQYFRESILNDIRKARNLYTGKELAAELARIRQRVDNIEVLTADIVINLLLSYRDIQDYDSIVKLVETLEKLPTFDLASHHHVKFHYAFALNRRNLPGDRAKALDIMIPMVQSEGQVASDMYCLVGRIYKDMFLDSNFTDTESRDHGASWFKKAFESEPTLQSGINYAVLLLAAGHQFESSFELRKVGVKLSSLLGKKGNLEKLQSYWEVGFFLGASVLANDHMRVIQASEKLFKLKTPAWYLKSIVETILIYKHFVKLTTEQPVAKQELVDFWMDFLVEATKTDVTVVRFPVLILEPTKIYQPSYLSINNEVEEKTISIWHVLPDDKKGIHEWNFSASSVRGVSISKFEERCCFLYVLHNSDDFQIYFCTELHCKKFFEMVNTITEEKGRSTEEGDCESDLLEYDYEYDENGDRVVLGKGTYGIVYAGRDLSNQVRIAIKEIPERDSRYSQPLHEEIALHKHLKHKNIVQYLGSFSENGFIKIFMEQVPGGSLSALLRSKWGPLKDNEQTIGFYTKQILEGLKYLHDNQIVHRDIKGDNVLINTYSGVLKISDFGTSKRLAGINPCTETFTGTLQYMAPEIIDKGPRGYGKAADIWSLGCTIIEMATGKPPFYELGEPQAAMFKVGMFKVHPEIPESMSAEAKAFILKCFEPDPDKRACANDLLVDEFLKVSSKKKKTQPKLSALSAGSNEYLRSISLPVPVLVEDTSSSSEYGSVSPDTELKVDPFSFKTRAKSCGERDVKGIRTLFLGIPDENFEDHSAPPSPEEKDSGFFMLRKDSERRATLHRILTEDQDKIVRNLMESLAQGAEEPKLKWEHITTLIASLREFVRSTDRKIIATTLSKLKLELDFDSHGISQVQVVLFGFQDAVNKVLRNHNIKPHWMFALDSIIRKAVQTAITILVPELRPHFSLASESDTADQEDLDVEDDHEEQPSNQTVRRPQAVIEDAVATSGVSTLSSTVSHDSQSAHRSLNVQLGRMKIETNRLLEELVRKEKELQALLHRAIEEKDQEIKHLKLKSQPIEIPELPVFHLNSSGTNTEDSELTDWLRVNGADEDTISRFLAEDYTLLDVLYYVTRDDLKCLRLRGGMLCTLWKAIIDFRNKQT
The experiment in a line: ASK1 (AUTO PHOS T838) assay in HEK-293T cells, MSD format. It counts as cell-based. To be noted: HEK-293T cells transfected with ASK1-V5, 1 hr compound incubation; class symbols. In short, it runs like this:
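HEK-293T cells transiently expressing full-length V5-tagged ASK1, treated 1 h at 37 °C with compound (top 20 µM, 3-fold, 10 points). Lysates captured on anti-V5 and probed with anti-pASK1 T838 in MSD electrochemiluminescence format. IC50 from 4-parameter fit of normalized % activity.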
As to `C[C@H]1CCCOc2ncc(Br)cc2C(=O)Nc2cccc(n2)-c2nncn21` (single isomer, unassigned) [Compound 1], the pIC50 (usually the negative decadic logarithm of the IC50, by convention in mol/L) was ≥ 7.00.
In the case of `C[C@H]1CCCOc2ncc(C#N)cc2C(=O)Nc2cccc(n2)-c2nncn21` [Compound 38, (S)-10-Methyl-4-oxo-1^4H-6-oxa-3-aza-2(2,6),5(3,2)-dipyridina-1(3,4)-triazolacyclodecaphane-5^5-carbonitrile] it was 6.00 to 7.00; in that of `C[C@H]1CCCOc2ncc(C(F)(F)F)cc2C(=O)Nc2cccc(n2)-c2nncn21` (single isomer, unassigned) [Compound 41], 6.00 to 7.00.
In the case of `C[C@H]1CCCOc2ncc(-c3ccncc3)cc2C(=O)Nc2cccc(n2)-c2nncn21` [Compound 17, (S)-10-Methyl-5^5-(pyridin-4-yl)-1^4H-6-oxa-3-aza-2(2,6),5(3,2)-dipyridina-1(3,4)-triazolacyclodecaphan-4-one] it was ≥ 7.00; in that of `C[C@H]1CCCOc2ncccc2C(=O)Nc2cccc(n2)-c2nncn21` (single isomer, unassigned) [Compound 4], 6.00 to 7.00.
